Results reported in PubChem BioAssay AID1259407 (Chemical Carcinogenesis Research Information System (CCRIS), 2018).
Active and inactive are the calls of the source. How the calls were made is not given here.

Tested on: CCRIS mutagenicity, Ames/micronucleus/aberration tests
Assay: CCRIS mutagenicity studies
Source text: The CCRIS database contains chemical records with carcinogenicity, mutagenicity, tumor promotion, and tumor inhibition test results. It was developed by the National Cancer Institute (NCI). Data are derived from studies cited in primary journals, current awareness tools, NCI reports, and other sources. Test results have been reviewed by experts in carcinogenesis and mutagenesis.
CCRIS provides historical information from the years 1985 - 2011. It is no longer updated.
This is an archive assay for CCRIS mutagenicity studies.

[1] = Test System: AMES SALMONELLA TYPHIMURIUM, Strain/Indicator: TA98, Metabolic Activation: RAT, LIVER, S-9, AROCLOR 1254, Method: STANDARD PLATE
[2] = Test System: AMES SALMONELLA TYPHIMURIUM, Strain/Indicator: TA100, Metabolic Activation: RAT, LIVER, S-9, AROCLOR 1254, Method: STANDARD PLATE
[3] = Test System: AMES SALMONELLA TYPHIMURIUM, Strain/Indicator: TA1537, Metabolic Activation: RAT, LIVER, S-9, AROCLOR 1254, Method: STANDARD PLATE
[4] = Test System: AMES SALMONELLA TYPHIMURIUM, Strain/Indicator: TA98, Metabolic Activation: NONE, Method: STANDARD PLATE
[5] = Test System: AMES SALMONELLA TYPHIMURIUM, Strain/Indicator: TA100, Metabolic Activation: NONE, Method: STANDARD PLATE
[6] = Test System: AMES SALMONELLA TYPHIMURIUM, Strain/Indicator: TA1535, Metabolic Activation: NONE, Method: STANDARD PLATE
[7] = Test System: AMES SALMONELLA TYPHIMURIUM, Strain/Indicator: TA1537, Metabolic Activation: NONE, Method: STANDARD PLATE

**Q.** Which results are given for `c1ccc2c(c1)ccc1cc3c(ccc4ccccc43)cc12`?
**A.** mutagenic call (Test System: AMES SALMONELLA TYPHIMURIUM, Strain/Indicator: TA98, Metabolic Activation: HAMSTER, LIVER, S-9, AROCLOR 1254 (5 OR 30%), Method: PREINCUBATION): inactive; negative; mutagenic call (Test System: AMES SALMONELLA TYPHIMURIUM, Strain/Indicator: TA98, Metabolic Activation: HAMSTER, LIVER, S-9, AROCLOR 1254 (10%), Method: PREINCUBATION): active; positive; mutagenic call (Test System: AMES SALMONELLA TYPHIMURIUM, Strain/Indicator: TA98, Metabolic Activation: RAT, LIVER, S-9, AROCLOR 1254 (30%), Method: PREINCUBATION): active; positive; mutagenic call [1]: active; positive; mutagenic call (Test System: AMES SALMONELLA TYPHIMURIUM, Strain/Indicator: TA100, Metabolic Activation: HAMSTER, LIVER, S-9, AROCLOR 1254 (5, 10 OR 30%), Method: PREINCUBATION): active; positive; mutagenic call (Test System: AMES SALMONELLA TYPHIMURIUM, Strain/Indicator: TA100, Metabolic Activation: MOUSE, LIVER, S-9, 3-METHYLCHOLANTHRENE, Method: STANDARD PLATE): active; positive; mutagenic call (Test System: AMES SALMONELLA TYPHIMURIUM, Strain/Indicator: TA100, Metabolic Activation: MOUSE, LIVER, S-10, AROCLOR 1254): active; positive; mutagenic call (Test System: AMES SALMONELLA TYPHIMURIUM, Strain/Indicator: TA100, Metabolic Activation: NONE, Method: PREINCUBATION): inactive; negative; mutagenic call (Test System: AMES SALMONELLA TYPHIMURIUM, Strain/Indicator: TA100, Metabolic Activation: RAT, LIVER, S-9, AROCLOR 1254 (30%), Method: PREINCUBATION): active; positive; mutagenic call [2]: active; positive; mutagenic call [3]: active; positive; mutagenic call (Test System: CHINESE HAMSTER V-79, Strain/Indicator: V-79/6-THIOGUANINE, Metabolic Activation: RAT, LIVER, S-9, PHENOBARBITAL, Method: STANDARD PLATE): active; positive; mutagenic call (Test System: CHINESE HAMSTER V-79, Strain/Indicator: V-79/OUABAIN, Metabolic Activation: CELL-MEDIATED, Method: STANDARD PLATE): active; positive

**Q.** `O=C(CCNNC(=O)c1ccncc1)NCc1ccccc1` was tested. Which mutagenic call [4] did it give?
**A.** inactive; negative

**Q.** And the mutagenic call [1]?
**A.** inactive; negative

**Q.** And the mutagenic call [5]?
**A.** active; positive

**Q.** And the mutagenic call [2]?
**A.** active; positive

**Q.** What about the mutagenic call [6] of the same compound?
**A.** active; positive

**Q.** What about the mutagenic call (Test System: AMES SALMONELLA TYPHIMURIUM, Strain/Indicator: TA1535, Metabolic Activation: RAT, LIVER, S-9, AROCLOR 1254, Method: STANDARD PLATE) of the same compound?
**A.** active; positive

**Q.** What about the mutagenic call [7] of the same compound?
**A.** inactive; negative

**Q.** And the mutagenic call [3]?
**A.** inactive; negative

**Q.** With `O=C1c2ccc3nc(-c4ccccc4)sc3c2C(=O)c2ccc3nc(-c4ccccc4)sc3c21` as the compound, how does the mutagenic call (Test System: AMES SALMONELLA TYPHIMURIUM, Strain/Indicator: TA98, Metabolic Activation: HAMSTER, LIVER, S-9, AROCLOR 1254 (10%), Method: STANDARD PLATE) read?
**A.** inactive; negative

**Q.** What about the mutagenic call [4] of the same compound?
**A.** inactive; negative

**Q.** And the mutagenic call (Test System: AMES SALMONELLA TYPHIMURIUM, Strain/Indicator: TA98, Metabolic Activation: RAT, LIVER, S-9, AROCLOR 1254 (10%), Method: STANDARD PLATE)?
**A.** inactive; negative

**Q.** What about the mutagenic call (Test System: AMES SALMONELLA TYPHIMURIUM, Strain/Indicator: TA100, Metabolic Activation: HAMSTER, LIVER, S-9, AROCLOR 1254 (10%), Method: STANDARD PLATE) of the same compound?
**A.** inactive; negative

**Q.** What about the mutagenic call [5] of the same compound?
**A.** inactive; negative

**Q.** And the mutagenic call (Test System: AMES SALMONELLA TYPHIMURIUM, Strain/Indicator: TA100, Metabolic Activation: RAT, LIVER, S-9, AROCLOR 1254 (10%), Method: STANDARD PLATE)?
**A.** inactive; negative

**Q.** And the mutagenic call (Test System: AMES SALMONELLA TYPHIMURIUM, Strain/Indicator: TA1535, Metabolic Activation: HAMSTER, LIVER, S-9, AROCLOR 1254 (10%), Method: STANDARD PLATE)?
**A.** inactive; negative

**Q.** And the mutagenic call [6]?
**A.** inactive; negative

**Q.** And the mutagenic call (Test System: AMES SALMONELLA TYPHIMURIUM, Strain/Indicator: TA1535, Metabolic Activation: RAT, LIVER, S-9, AROCLOR 1254 (10%), Method: STANDARD PLATE)?
**A.** inactive; negative

**Q.** And the mutagenic call (Test System: AMES SALMONELLA TYPHIMURIUM, Strain/Indicator: TA1537, Metabolic Activation: HAMSTER, LIVER, S-9, AROCLOR 1254 (10%), Method: STANDARD PLATE)?
**A.** inactive; negative

**Q.** And the mutagenic call [7]?
**A.** inactive; negative

**Q.** What about the mutagenic call (Test System: AMES SALMONELLA TYPHIMURIUM, Strain/Indicator: TA1537, Metabolic Activation: RAT, LIVER, S-9, AROCLOR 1254 (10%), Method: STANDARD PLATE) of the same compound?
**A.** inactive; negative

**Q.** What about the mutagenic call (Test System: AMES SALMONELLA TYPHIMURIUM, Strain/Indicator: TA1538, Metabolic Activation: HAMSTER, LIVER, S-9, AROCLOR 1254 (10%), Method: STANDARD PLATE) of the same compound?
**A.** inactive; negative

**Q.** What about the mutagenic call (Test System: AMES SALMONELLA TYPHIMURIUM, Strain/Indicator: TA1538, Metabolic Activation: NONE, Method: STANDARD PLATE) of the same compound?
**A.** inactive; negative

**Q.** And the mutagenic call (Test System: AMES SALMONELLA TYPHIMURIUM, Strain/Indicator: TA1538, Metabolic Activation: RAT, LIVER, S-9, AROCLOR 1254 (10%), Method: STANDARD PLATE)?
**A.** inactive; negative

**Q.** And the mutagenic call (Test System: MOUSE LYMPHOMA, Strain/Indicator: L5178Y (TK+/TK-), Metabolic Activation: NONE, Method: SUSPENSION/PLATE)?
**A.** inactive; negative

**Q.** What about the mutagenic call (Test System: MOUSE LYMPHOMA, Strain/Indicator: L5178Y (TK+/TK-), Metabolic Activation: RAT, LIVER, S-9, AROCLOR 1254, Method: SUSPENSION/PLATE) of the same compound?
**A.** active; positive
